Assay: xn = mol fraction of the nth substance listed
Conditions: Liquid; for viscosity: 100.5 kPa; for mass density: 101 kPa

CCOC(=O)c1ccccc1 [ethyl benzoate] + CCO
Conditions	mass density, 288.15 K [kg/m3]	mass density, 298.15 K [kg/m3]	mass density, 308.15 K [kg/m3]	mass density, 318.15 K [kg/m3]	viscosity, 288.15 K [mPa·s]	viscosity, 298.15 K [mPa·s]	viscosity, 308.15 K [mPa·s]	viscosity, 318.15 K [mPa·s]
x1 = 0.05	824.59	815.81	806.92	797.88	1.342	1.108	0.926	0.778
x1 = 0.1	851.02	842.08	833.03	823.84	1.36	1.123	0.938	0.793
x1 = 0.15	874.07	865.01	855.84	846.52	1.388	1.148	0.959	0.812
x1 = 0.2	894.37	885.22	875.95	866.54	1.425	1.176	0.984	0.833
x1 = 0.25	912.35	903.11	893.77	884.29	1.465	1.208	1.012	0.857
x1 = 0.3	928.37	919.07	909.68	900.15	1.51	1.244	1.042	0.881
x1 = 0.35	942.79	933.45	924.02	914.45	1.557	1.282	1.072	0.908
x1 = 0.4	955.85	946.47	937	927.41	1.607	1.321	1.105	0.935
x1 = 0.45	967.71	958.3	948.81	939.2	1.661	1.363	1.138	0.964
x1 = 0.5	978.51	969.07	959.57	949.95	1.715	1.405	1.173	0.993
x1 = 0.55	988.43	978.97	969.46	959.84	1.773	1.449	1.209	1.024
x1 = 0.6	997.48	988.07	978.54	968.93	1.833	1.496	1.247	1.055
x1 = 0.65	1005.91	996.46	986.94	977.35	1.895	1.544	1.286	1.089
x1 = 0.7	1013.67	1004.22	994.7	985.12	1.959	1.595	1.326	1.124
x1 = 0.75	1020.94	1011.5	1002.01	992.45	2.028	1.649	1.37	1.159
x1 = 0.8	1027.63	1018.2	1008.72	999.19	2.099	1.705	1.416	1.198
x1 = 0.85	1033.99	1024.57	1015.13	1005.64	2.178	1.767	1.465	1.241
x1 = 0.9	1039.87	1030.48	1021.06	1011.62	2.267	1.836	1.521	1.288
x1 = 0.95	1045.45	1036.09	1026.72	1017.33	2.373	1.917	1.582	1.335
x1 = 1	1050.78	1041.42	1032.07	1022.73	2.444	1.971	1.624	1.368

CCCCCC(=O)OCC [ethyl hexanoate] + CCO
Conditions	mass density, 288.15 K [kg/m3]	mass density, 298.15 K [kg/m3]	mass density, 308.15 K [kg/m3]	mass density, 318.15 K [kg/m3]	viscosity, 288.15 K [mPa·s]	viscosity, 298.15 K [mPa·s]	viscosity, 308.15 K [mPa·s]	viscosity, 318.15 K [mPa·s]
x1 = 0.05	804.18	795.44	786.59	777.58	1.241	1.031	0.866	0.732
x1 = 0.1	812.99	804.11	795.12	785.96	1.182	0.982	0.829	0.71
x1 = 0.15	820.54	811.53	802.42	793.14	1.139	0.948	0.806	0.691
x1 = 0.2	827.14	818.05	808.85	799.48	1.106	0.926	0.789	0.676
x1 = 0.25	832.89	823.72	814.44	805.01	1.082	0.909	0.777	0.667
x1 = 0.3	837.94	828.72	819.38	809.89	1.062	0.897	0.769	0.662
x1 = 0.35	842.47	833.2	823.82	814.29	1.051	0.889	0.763	0.659
x1 = 0.4	846.5	837.18	827.76	818.2	1.045	0.883	0.759	0.657
x1 = 0.45	850.15	840.82	831.37	821.8	1.039	0.88	0.758	0.657
x1 = 0.5	853.47	844.11	834.63	825.05	1.037	0.88	0.759	0.658
x1 = 0.55	856.51	847.12	837.64	828.05	1.038	0.882	0.761	0.662
x1 = 0.6	859.28	849.88	840.39	830.79	1.039	0.888	0.765	0.665
x1 = 0.65	861.84	852.43	842.94	833.34	1.045	0.892	0.767	0.668
x1 = 0.7	864.22	854.82	845.33	835.75	1.048	0.896	0.773	0.674
x1 = 0.75	866.43	857.02	847.54	837.97	1.054	0.902	0.779	0.68
x1 = 0.8	868.48	859.09	849.63	840.08	1.064	0.91	0.786	0.686
x1 = 0.85	870.41	861.04	851.59	842.07	1.073	0.919	0.794	0.694
x1 = 0.9	872.22	862.86	853.45	843.97	1.086	0.929	0.803	0.703
x1 = 0.95	873.99	864.66	855.27	845.83	1.1	0.94	0.815	0.712
x1 = 1	875.64	866.29	856.91	847.5	1.102	0.94	0.814	0.711
